ChEMBL document CHEMBL4665657, “2-Phenyl-8-(1-phenylallyl)-chromenone compounds have a pan-PPAR modulator pharmacophore” (Bioorg Med Chem, 2019)
The source made the active and inactive calls. No cut-off for these calls is given here.

Assays:
BMMSC [1] = assay: Induction of adipogenesis in human BMMSC cells assessed as increase in ACACB mRNA at 10 uM incubated for 3 days by qRT-PCR analysis; assay type: functional, cell-based; settings: time 3.0 day
BMMSC [2] = assay: Induction of adipogenesis in human BMMSC cells assessed as increase in HMGCS2 mRNA at 10 uM incubated for 3 days by qRT-PCR analysis; assay type: functional, cell-based; settings: time 3.0 day
BMMSC [3] = assay: Induction of adipogenesis in human BMMSC cells assessed as increase in HMGCR mRNA at 10 uM incubated for 3 days by qRT-PCR analysis; assay type: functional, cell-based; settings: time 3.0 day
BMMSC [4] = assay: Induction of adipogenesis in human BMMSC cells assessed as increase in ACOX1 mRNA at 10 uM incubated for 3 days by qRT-PCR analysis; assay type: functional, cell-based; settings: time 3.0 day
[5] = target: T1, Peroxisome proliferator-activated receptor gamma (Homo sapiens, UniProt P37231); assay: Binding affinity to PPARgamma (unknown origin) by TR-FRET assay
T1 sequence (P37231 whole entry): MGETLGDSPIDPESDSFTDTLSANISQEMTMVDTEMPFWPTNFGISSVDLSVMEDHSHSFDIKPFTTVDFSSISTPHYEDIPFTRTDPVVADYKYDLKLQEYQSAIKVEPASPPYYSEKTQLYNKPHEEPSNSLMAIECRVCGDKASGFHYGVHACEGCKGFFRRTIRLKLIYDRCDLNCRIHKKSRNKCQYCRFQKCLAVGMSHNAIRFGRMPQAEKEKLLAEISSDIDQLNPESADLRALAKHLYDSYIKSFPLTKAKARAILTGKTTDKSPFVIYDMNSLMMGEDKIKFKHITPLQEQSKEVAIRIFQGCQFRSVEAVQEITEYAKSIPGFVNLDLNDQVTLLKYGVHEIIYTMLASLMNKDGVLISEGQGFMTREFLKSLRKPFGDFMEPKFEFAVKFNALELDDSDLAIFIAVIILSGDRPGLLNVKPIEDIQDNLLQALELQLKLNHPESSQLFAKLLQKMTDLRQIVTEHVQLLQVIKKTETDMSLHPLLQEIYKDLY

[6] = target: T2, Peroxisome proliferator-activated receptor delta (Homo sapiens, UniProt Q03181); assay: Binding affinity to PPARdelta (unknown origin) by TR-FRET assay
T2 sequence (Q03181 whole entry): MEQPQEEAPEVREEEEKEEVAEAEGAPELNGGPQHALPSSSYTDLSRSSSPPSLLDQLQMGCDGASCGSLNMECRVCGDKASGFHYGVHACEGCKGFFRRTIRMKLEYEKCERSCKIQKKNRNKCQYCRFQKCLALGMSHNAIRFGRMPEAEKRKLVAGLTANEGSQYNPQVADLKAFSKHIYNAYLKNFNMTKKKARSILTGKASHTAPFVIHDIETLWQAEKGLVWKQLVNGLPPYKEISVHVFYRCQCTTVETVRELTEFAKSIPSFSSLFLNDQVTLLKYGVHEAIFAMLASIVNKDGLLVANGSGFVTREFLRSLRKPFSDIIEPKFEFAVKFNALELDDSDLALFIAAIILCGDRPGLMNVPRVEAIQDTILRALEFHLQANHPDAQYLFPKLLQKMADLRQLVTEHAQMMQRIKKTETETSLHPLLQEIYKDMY

[7] = target: T3, Peroxisome proliferator-activated receptor alpha (Homo sapiens, UniProt Q07869); assay: Binding affinity to PPARalpha (unknown origin) by TR-FRET assay
T3 sequence (Q07869 whole entry): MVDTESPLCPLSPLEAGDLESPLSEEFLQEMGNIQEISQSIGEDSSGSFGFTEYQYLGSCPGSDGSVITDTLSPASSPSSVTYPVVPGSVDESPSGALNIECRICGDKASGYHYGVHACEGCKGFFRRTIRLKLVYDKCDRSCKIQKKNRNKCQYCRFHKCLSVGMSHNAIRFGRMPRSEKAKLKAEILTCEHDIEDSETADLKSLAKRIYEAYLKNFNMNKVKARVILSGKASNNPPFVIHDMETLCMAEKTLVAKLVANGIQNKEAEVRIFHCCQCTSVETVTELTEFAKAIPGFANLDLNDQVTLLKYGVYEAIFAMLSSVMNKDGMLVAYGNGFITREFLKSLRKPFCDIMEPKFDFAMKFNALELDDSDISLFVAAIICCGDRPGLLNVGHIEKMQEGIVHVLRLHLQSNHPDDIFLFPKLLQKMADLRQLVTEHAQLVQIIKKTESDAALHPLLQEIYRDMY

BMMSC [8] = assay: Induction of adipogenesis in human BMMSC cells assessed as lipid droplet formation at 10 uM incubated for 5 days by oil red O staining based inverted microscopy analysis; assay type: functional, cell-based; settings: time 5.0 day
BMMSC [9] = assay: Induction of adipogenesis in human BMMSC cells assessed as increase in adiponectin secretion incubated for 5 days by ELISA; assay type: functional, cell-based; settings: time 5.0 day
PC-3 = assay: Cytotoxicity against human PC-3 cells assessed as reduction in cell viability incubated for 72 hrs by WST-8 assay; assay type: functional, cell-based; settings: PC-3, 72 h
[10] = Cytotoxicity against human BM-MSC cells assessed as cell viability at 100 uM incubated for 72 hrs by WST-8 assay; assay type: cell-based, BMMSC; settings: read-out: Activity
A549 = assay: Cytotoxicity against human A549 cells assessed as reduction in cell viability incubated for 72 hrs by WST-8 assay; assay type: functional, cell-based; settings: A549, 72 h
BMMSC [11] = assay: Induction of adipogenesis in human BMMSC cells assessed as increase in adiponectin secretion at 10 uM incubated for 5 days by ELISA; assay type: functional, cell-based; settings: time 5.0 day
BMMSC [12] = assay: Induction of adipogenesis in human BMMSC cells assessed as increase in ANGPTL4 mRNA at 1 uM incubated for 3 days by qRT-PCR analysis; assay type: functional, cell-based; settings: time 3.0 day
BMMSC [13] = assay: Induction of adipogenesis in human BMMSC cells assessed as increase in ACACB mRNA at 1 uM incubated for 3 days by qRT-PCR analysis; assay type: functional, cell-based; settings: time 3.0 day
BMMSC [14] = assay: Induction of adipogenesis in human BMMSC cells assessed as increase in HMGCS2 mRNA at 1 uM incubated for 3 days by qRT-PCR analysis; assay type: functional, cell-based; settings: time 3.0 day
BMMSC [15] = assay: Induction of adipogenesis in human BMMSC cells assessed as increase in HMGCR mRNA at 1 uM incubated for 3 days by qRT-PCR analysis; assay type: functional, cell-based; settings: time 3.0 day
BMMSC [16] = assay: Induction of adipogenesis in human BMMSC cells assessed as increase in ACOX1 mRNA at 1 uM incubated for 3 days by qRT-PCR analysis; assay type: functional, cell-based; settings: time 3.0 day

## Cc1cccc(Nc2cc(Cl)nc(SCC(=O)O)n2)c1C
BMMSC [1]
  Activity: Active
BMMSC [2]
  Activity: Active
BMMSC [3]
  Activity: Active
BMMSC [4]
  Activity: Active

## C=CC(c1ccc(O)c(OC)c1)c1c(O)cc(O)c2c(=O)cc(-c3ccccc3)oc12 (stereo not drawn)
[5]
  Ki: 2530 nM
[6]
  Ki: 2480 nM
[7]
  Ki: 2410 nM
BMMSC [8]
  Activity: Active
BMMSC [9]
  Activity: Dose-dependent effect
PC-3
  IC50: 30.6 µM
[10]
  viability at 72 h, 100 µM: 57%
A549
  IC50: 55.5 µM
BMMSC [11]
  Activity: Active

## CCc1ccc(CCOc2ccc(CC3SC(=O)NC3=O)cc2)nc1 (stereo not drawn)
BMMSC [12]
  Activity: Active
BMMSC [13]
  Activity: Active
BMMSC [14]
  Activity: inactive
BMMSC [15]
  Activity: Active
BMMSC [16]
  Activity: inactive
